Measured values taken from PubChem BioAssay AID2060489 (Molecular Pharmacology Branch, DTP, NCI, 2025).
Blank lines part the entries; values can stand above or below the compound they belong to.

System: 922993-354-T-J3-PDC complex spheroids, viability
Test: Anticancer human tumor 922993-354-T-J3-PDC patient-derived endometrial carcinoma cell line growth inhibition [GQUAD]
Settings: for IC50: curve of first compound; for viability, T/C: stronger effect = lower value
In short: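 Multi-cell-type spheroids of tumor cells with HUVEC and mesenchymal stem cells, treated with drug combinations. Concentrations descend in half-log steps from near clinical Cmax, or from 10 microM where Cmax is unknown; viability read-out.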

[1] = second compound 0.0316 µM, first compound 0.0316 µM
[2] = second compound 0.0316 µM, first compound 0.1 µM
[3] = second compound 0.0316 µM, first compound 0.316 µM
[4] = second compound 0.0316 µM, first compound 1 µM
[5] = second compound 0.0316 µM, first compound 3.16 µM
[6] = second compound 0.0316 µM, first compound 10 µM
[7] = second compound 0.1 µM, first compound 0.0316 µM
[8] = second compound 0.1 µM, first compound 0.1 µM
[9] = second compound 0.1 µM, first compound 0.316 µM
[10] = second compound 0.1 µM, first compound 1 µM
[11] = second compound 0.1 µM, first compound 3.16 µM
[12] = second compound 0.1 µM, first compound 10 µM
[13] = second compound 0.316 µM, first compound 0.0316 µM
[14] = second compound 0.316 µM, first compound 0.1 µM
[15] = second compound 0.316 µM, first compound 0.316 µM
[16] = second compound 0.316 µM, first compound 1 µM
[17] = second compound 0.316 µM, first compound 3.16 µM
[18] = second compound 0.316 µM, first compound 10 µM
[19] = second compound 1 µM, first compound 0.0316 µM
[20] = second compound 1 µM, first compound 0.1 µM
[21] = second compound 1 µM, first compound 0.316 µM
[22] = second compound 1 µM, first compound 1 µM
[23] = second compound 1 µM, first compound 3.16 µM
[24] = second compound 1 µM, first compound 10 µM
[25] = second compound 3.16 µM, first compound 0.0316 µM
[26] = second compound 3.16 µM, first compound 0.1 µM
[27] = second compound 3.16 µM, first compound 0.316 µM
[28] = second compound 3.16 µM, first compound 1 µM
[29] = second compound 3.16 µM, first compound 3.16 µM
[30] = second compound 3.16 µM, first compound 10 µM
[31] = second compound 10 µM, first compound 0.0316 µM
[32] = second compound 10 µM, first compound 0.1 µM
[33] = second compound 10 µM, first compound 0.316 µM
[34] = second compound 10 µM, first compound 1 µM
[35] = second compound 10 µM, first compound 3.16 µM
[36] = second compound 10 µM, first compound 10 µM
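Note: spheroids exposed to compounds for seven days.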
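Throughout, for viability, T/C: 100% = DMSO vehicle control viability.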

IC50 (second compound 0.0316 µM): > 10 µM
IC50 (second compound 0.1 µM): > 10 µM
IC50 (second compound 0.316 µM): < 0.0316 µM
IC50 (second compound 1 µM): < 0.0316 µM
IC50 (second compound 3.16 µM): < 0.0316 µM
IC50 (second compound 10 µM): 3.77 µM
SMILES: O=C(c1cc(Cc2n[nH]c(=O)c3ccccc23)ccc1F)N1CCN(C(=O)C2CC2)CC1 + Cc1cnc(CNC(=O)c2c(=O)c3ccc(N4CCCN(C)CC4)nc3n3c2sc2ccccc23)cn1
viability, T/C [1]: 79.7%
viability, T/C [2]: 78%
viability, T/C [3]: 90.8%
viability, T/C [4]: 92.5%
viability, T/C [5]: 61.2%
viability, T/C [6]: 75%
viability, T/C [7]: 74.1%
viability, T/C [8]: 68.3%
viability, T/C [9]: 64.1%
viability, T/C [10]: 49.1%
viability, T/C [11]: 54.4%
viability, T/C [12]: 76%
viability, T/C [13]: 57.4%
viability, T/C [14]: 46.1%
viability, T/C [15]: 39.4%
viability, T/C [16]: 42%
viability, T/C [17]: 50.4%
viability, T/C [18]: 55.3%
viability, T/C [19]: 50.2%
viability, T/C [20]: 51.7%
viability, T/C [21]: 37.2%
viability, T/C [22]: 43.5%
viability, T/C [23]: 48.5%
viability, T/C [24]: 41.1%
viability, T/C [25]: 43.7%
viability, T/C [26]: 53.4%
viability, T/C [27]: 53.4%
viability, T/C [28]: 57.7%
viability, T/C [29]: 51.3%
viability, T/C [30]: 49.8%
viability, T/C [31]: 42.8%
viability, T/C [32]: 53.4%
viability, T/C [33]: 60.1%
viability, T/C [34]: 52.8%
viability, T/C [35]: 52%
viability, T/C [36]: 39.2%

SMILES: O=c1[nH]cc(F)c(=O)[nH]1 + CN(C)c1ccc(Nc2c3ccc(NC(=O)CCN4CCCC4)cc3nc3cc(NC(=O)CCN4CCCC4)ccc23)cc1
IC50 (second compound 0.0316 µM): 5.9 µM
IC50 (second compound 0.1 µM): 4.59 µM
IC50 (second compound 0.316 µM): 3.93 µM
IC50 (second compound 1 µM): 5.83 µM
IC50 (second compound 3.16 µM): 5.93 µM
IC50 (second compound 10 µM): 5.37 µM
viability, T/C [1]: 82.1%
viability, T/C [2]: 84.7%
viability, T/C [3]: 81.8%
viability, T/C [4]: 91.8%
viability, T/C [5]: 83.7%
viability, T/C [6]: 21.4%
viability, T/C [7]: 110%
viability, T/C [8]: 93.9%
viability, T/C [9]: 112%
viability, T/C [10]: 81%
viability, T/C [11]: 69.2%
viability, T/C [12]: 15.7%
viability, T/C [13]: 103%
viability, T/C [14]: 100%
viability, T/C [15]: 91.4%
viability, T/C [16]: 78.1%
viability, T/C [17]: 56.8%
viability, T/C [18]: 22.5%
viability, T/C [19]: 95.8%
viability, T/C [20]: 100%
viability, T/C [21]: 90.6%
viability, T/C [22]: 105%
viability, T/C [23]: 82.1%
viability, T/C [24]: 21.9%
viability, T/C [25]: 90.4%
viability, T/C [26]: 113%
viability, T/C [27]: 105%
viability, T/C [28]: 98.2%
viability, T/C [29]: 87.5%
viability, T/C [30]: 18.8%
viability, T/C [31]: 117%
viability, T/C [32]: 135%
viability, T/C [33]: 121%
viability, T/C [34]: 117%
viability, T/C [35]: 72.9%
viability, T/C [36]: 23.1%

SMILES: CC(C)(O)C1CCC(Nc2ccc3ncc(-c4cccc(C(F)(F)F)c4)n3n2)CC1 (stereo unspecified) + CN(C)c1ccc(Nc2c3ccc(NC(=O)CCN4CCCC4)cc3nc3cc(NC(=O)CCN4CCCC4)ccc23)cc1
IC50 (second compound 0.0316 µM): > 10 µM
IC50 (second compound 0.1 µM): > 10 µM
IC50 (second compound 0.316 µM): > 10 µM
IC50 (second compound 1 µM): > 10 µM
IC50 (second compound 3.16 µM): > 10 µM
IC50 (second compound 10 µM): > 10 µM
viability, T/C [1]: 78.5%
viability, T/C [2]: 92.8%
viability, T/C [3]: 99.9%
viability, T/C [4]: 80.2%
viability, T/C [5]: 85.1%
viability, T/C [6]: 92.3%
viability, T/C [7]: 100%
viability, T/C [8]: 91%
viability, T/C [9]: 88.6%
viability, T/C [10]: 87.6%
viability, T/C [11]: 76.6%
viability, T/C [12]: 81.2%
viability, T/C [13]: 108%
viability, T/C [14]: 83%
viability, T/C [15]: 96.5%
viability, T/C [16]: 89.7%
viability, T/C [17]: 58%
viability, T/C [18]: 63.3%
viability, T/C [19]: 69.5%
viability, T/C [20]: 96.2%
viability, T/C [21]: 79%
viability, T/C [22]: 75.2%
viability, T/C [23]: 78.9%
viability, T/C [24]: 61.2%
viability, T/C [25]: 92%
viability, T/C [26]: 95%
viability, T/C [27]: 90.4%
viability, T/C [28]: 94.3%
viability, T/C [29]: 85%
viability, T/C [30]: 74.4%
viability, T/C [31]: 120%
viability, T/C [32]: 140%
viability, T/C [33]: 103%
viability, T/C [34]: 88.8%
viability, T/C [35]: 78.3%
viability, T/C [36]: 55%
